Experimental findings from patent US7550469B2, “Heterocyclic amide derivatives and their use as dopamine D3 receptor ligands” (Aventis Pharmaceuticals Inc., priority 2001, dated 2009) are described below.

Each structure is given as a SMILES string. Like-named read-outs stand apart in the source and are kept apart here.

The target of this assay is T1, cloned human dopamine D3 receptors (Homo sapiens, UniProt P35462).
T1 construct: expressed in transfected cells; membrane homogenate
The assay is described as follows: [N-Methyl-3H]Spiroperidol binding to cloned human dopamine D3 receptors (Protocol 1). The text has this:
[N-Methyl-^3H]Spiroperidol Binding to Cloned Human Dopamine D3 Receptors
This assay measures the in vitro activity of compounds on cloned human dopamine (D3) receptors and predicts the direct dopamine-blocking properties of putative neuropsychiatric agents at human dopamine D3 receptors.
The D3 gene was isolated from a human striatal cDNA library (Stratagene). The gene was sequenced and sub-cloned into the expression vector RC/RSV (Invitrogen). CHO (Chinese Hamster Ovary) cells were stably transfected with 10 μg of the D3/RSV plasmid using the DOTAP method from Boehringer Mannheim and 72 clones that were G418 resistant were isolated. Using mRNA and binding displacement data a single high expressing clone was identified. This clone was then grown in large batches for the purpose of developing a 96 well format assay.
• 1. One plate (10 cm) with approximately 2-3 million D3 cells per plate is incubated with 1 ml of Trypsin-EDTA at room temperature for ˜2 min or until cells have lifted off plates. Four ml of Ham's F12+10% Fetal Bovine Serum+1% Penicillin/Streptomycin+G418 (400 μg/ml) medium are added to resuspend cells and 1 ml of this is added to each large plate (15 cm) containing 19 ml of the-same medium as mentioned above. • 2. The 5 large plates are incubated at 37° C.+5% CO2 for ˜3 days or until the cells are confluent. • 3. After these plates are confluent, they are split into 10 large plates. Medium is aspirated off, 2 ml of Trypsin-EDTA are added to each plate and plates are incubated at RT for 2 min or until cells have lifted off the plate. Eight ml of the F12 medium (same medium as #1 above) are added to each plate (10 ml total) to resuspend the cells and 5 ml are transferred to the 2 new plates containing 15 ml of the F12 media. • 4. The 10 large plates are incubated at 37° C.+5% CO2 for ˜2 days or until the cells are confluent. • 5. The 10 large plates are split into 60 large plates (using Trypsin-EDTA as #3 except 4 ml of F12 medium are added to resuspend cells and 1 ml is aliquoted to 6 new plates containing 19 ml of F12 medium each). • 6. Plates are incubated at […]+5% CO2 for ˜3 days or until cell are confluent. • 7. The 60 large plates are then split into 60 roller bottles (100-150 million cells/bottle). Medium is aspirated off, 2 ml of Trypsin-EDTA are added to each plate and incubated at RT for ˜2 minutes or until cells have lifted off plates. Eight ml of F12 medium are added to each plate to resuspend cells and the entire 10 ml are added to 1 roller bottle containing 90 ml of the F12 medium. • 8. The 60 roller bottles are immediately placed on their sides and transferred to the roller bottle incubator. They are incubated at 37° C.+5% CO2 for ˜3-5 days. Cells are spun at 30-40% motor speed in the Forma incubator. • 9. Medium is poured off and cells are washed 2× in PBS. • 10. Cells are then scraped off in 20 ml of PBS and the bottles are rinsed again with 5 ml of PBS to remove any remaining cells. Cells are stored on ice before membrane preparation. • 11. The yield for 60 D3 roller bottles has varied from ˜260-500 mg. • Note: All tissue culture reagents are from Gibco-BRL. C. Membrane Preparation
The cells are harvested into 250 ml centrifuge tubes with 100 volumes of cold phosphate buffered saline (PBS) and spun down (1200×G for 10 min at 4° C.). The medium is removed and 100 ml PBS are added to each centrifuge tube, cells are resuspend and spun down again. The PBS is removed and the final pellet is homogenized in an appropriate volume of 10% DMSO with a polytron on ice at a medium setting.
1. 0.5M Tris Buffer, pH 7.7 • a) 44.4 g Tris HCl 26.5 g Tris Base q.s. to 1 Liter (0.5 M Tris buffer, pH 7.7 at 37° C.) • b) make a 1:10 dilution in distilled H2O (0.05 M. Tris buffer, pH 7.7) 2. Tris Buffer Containing Physiological Salts • a) Stock buffer • NaCl 7.014 g • KCl 0.372 g • CaCl2 0.222 g • MgCl2 0.204 g • q.s. To 100 ml with 0.5 M. Tris Buffer • b) Dilute 1:10 in distilled H2O […]

[1] abbreviates: the 14th table, read-out: D3 Ki.
[2] abbreviates: the 13th table, unit inferred, read-out: D3Ki.
The mark [3] stands for this setting: the 18th table, read-out: D3 Ki.
Setting [4] is: the 15th table, read-out: D3 Ki.
Setting [5] is: the 22nd table, read-out: D3 Ki.
The mark [6] stands for this setting: the 21st table, read-out: D3 Ki.

T1 sequence (P35462 whole entry): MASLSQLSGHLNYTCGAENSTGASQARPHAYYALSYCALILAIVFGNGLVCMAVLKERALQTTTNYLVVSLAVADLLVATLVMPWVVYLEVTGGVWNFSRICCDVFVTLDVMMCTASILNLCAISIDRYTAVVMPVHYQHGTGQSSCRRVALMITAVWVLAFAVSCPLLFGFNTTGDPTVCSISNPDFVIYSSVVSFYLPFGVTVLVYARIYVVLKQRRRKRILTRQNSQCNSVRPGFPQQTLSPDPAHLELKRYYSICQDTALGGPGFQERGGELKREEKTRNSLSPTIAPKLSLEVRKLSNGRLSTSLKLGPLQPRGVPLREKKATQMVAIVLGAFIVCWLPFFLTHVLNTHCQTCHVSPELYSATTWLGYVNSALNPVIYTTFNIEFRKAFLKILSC

Take `COc1ccc2[nH]c(C(=O)NCCCCCN3CCN(c4csc5cc(F)ccc45)CC3)cc2c1` [compound 826785]: the Ki under setting [1] worked out at 1.43 nM.

As for `O=C(NCCCCCCN1CCN(c2csc3cc(C(F)(F)F)ccc23)CC1)c1cccc(F)c1` [compound 827730], the Ki (read-out: D3K1) amounted to 2.7 nM and the Ki under setting [1] came out at 2.7 nM.

Regarding `O=C(NCCCCN1CCN(c2c(Cl)sc3cc(F)ccc23)CC1)C(F)(F)F` [compound 814854], the Ki (read-out: D3K1) worked out at 35 nM.

Turning to `Cc1ccc2oc(C(=O)NCCCCN3CCCN(c4csc5cc(F)ccc45)CC3)cc2c1` [compound 827129], the Ki was determined as 7.75 nM (Table 2, read-out: D3K1) and 7.75 nM (the 16th table, read-out: D3 Ki).

With `O=C(NCCCCCN1CCCN(c2csc3cc(F)ccc23)CC1)c1cccc2cc[nH]c12` [S984495], the Ki under setting [2] came to 26.2 nM.

On to `O=C(COCc1ccccc1)NC/C=C\CN1CCN(c2csc3cc(C(F)(F)F)ccc23)CC1` [compound 826349], for which the Ki (read-out: D3K1) came out at 180 nM.

With `O=C(NCc1ccoc1CN1CCN(c2csc3cc(F)ccc23)CC1)c1cc2ccccc2s1` [compound 825844], the Ki (the 20th table, read-out: D3 Ki) was found to be 601 nM.

In the case of `O=C(NCc1sccc1CN1CCN(c2csc3cc(F)ccc23)CC1)c1cccc2ccccc12` [compound 826299], the Ki under setting [3] turned out to be 95 nM.

Regarding `O=C(NCCCCN1C2CCC1CC(c1noc3ccccc13)C2)c1ccc(Cl)cc1` (stereo not drawn) [compound 816523], the Ki under setting [4] amounted to 165 nM.

Regarding `O=C(NCCCCN1CCN(c2nn(C(=O)c3ccc(C(F)(F)F)cc3)c3ccsc23)CC1)c1ccc(C(F)(F)F)cc1` [compound 825149], the Ki under setting [5] stood at 164 nM.

As for `O=C(NCCCCN1CCN(c2n[nH]c3ccsc23)CC1)c1ccc(F)cc1` [compound 825162], the Ki under setting [5] was found to be 114 nM.

In the case of `O=C(NC/C=C\CN1CCN(c2csc3cc(C(F)(F)F)ccc23)CC1)C1CCC1` [compound 826333], the Ki (read-out: D3K1) came out at 24 nM.

As for `O=C(NCCCCN1CCN(c2c(Cl)sc3cc(F)ccc23)CC1)c1c(F)cccc1F` [compound 815069], where the note is “read-out: D3K1”, the Ki was determined as 15 nM.

For `O=C(NCCCCCN1CCN(c2csc3cc(F)ccc23)CC1)c1ccc2cc[nH]c2c1` [compound 826790], the Ki under setting [1] came out at 5.66 nM.

Turning to `COc1ccc(C(=O)NCCCCN2CCCN(c3csc4cc(F)ccc34)CC2)cc1OC` [compound 822196], the Ki under setting [2] turned out to be 5 nM.

For `O=C(NC/C=C/CN1CCN(c2csc3cc(C(F)(F)F)ccc23)CC1)c1cc(F)cc(F)c1` [compound 827716], the Ki (read-out: D3K1) is 98 nM.

For the compound `CC1(C)C(CNC(=O)c2cccc(C(F)(F)F)c2)C1CN1CCN(c2csc3cc(C(F)(F)F)ccc23)CC1` (stereo not drawn) [compound 826278], where the note is “read-out: D3K1”, the Ki is 87 nM.

For `Cc1ccccc1C(=O)NCCCCCN1CCN(c2csc3cc(C(F)(F)F)ccc23)CC1` [compound 826771], the Ki is, setting by setting: (read-out: D3K1) 6.7 nM; under setting [1], 6.7 nM.

Regarding `O=C(N[C@H](CO)CCCN1CCN(c2csc3cc(C(F)(F)F)ccc23)CC1)c1ccco1` [compound 815696], the Ki reads like this: (Table 2, read-out: D3K1) 871 nM; (read-out: D3K1) 871 nM; under setting [1], 871 nM.

For the compound `O=C(NCCCCCN1CCC(c2noc3ccsc23)CC1)c1ccccc1` [compound 816212], under setting [2], the Ki was found to be 570 nM.

As to `O=C(NCCCCN1CCCN(c2csc3cc(C(F)(F)F)ccc23)CC1)c1n[nH]c2ccccc12` [S980653], the Ki under setting [2] was determined as 61 nM.

Turning to `COc1ccccc1C(=O)NCCCCN1CCN(c2n[nH]c3ccsc23)CC1` [compound 825159], under setting [5], the Ki turned out to be 92.1 nM.

As to `O=C(NCCCCN1CCN(c2noc3ccsc23)CC1)c1cccs1` [compound 829687], the Ki under setting [5] came out at 50.3 nM.

For the compound `O=C(COc1ccccc1)NC/C=C/CN1CCN(c2csc3cc(C(F)(F)F)ccc23)CC1` [compound 827725], where the note is “read-out: D3K1”, the Ki is 120 nM.

With `O=C(NCCCCN1CCN(c2c(Cl)sc3cc(F)ccc23)CC1)c1ccc([N+](=O)[O-])cc1` [compound 815061], where the note is “read-out: D3K1”, the Ki stood at 3.6 nM.

In the case of `O=C(NCc1sccc1CN1CCN(c2csc3cc(F)ccc23)CC1)c1csc(-c2cccnc2)n1` [compound 826316], under setting [3], the Ki is 32 nM.

As to `C[C@@H]1CN(c2csc3cc(F)ccc23)C[C@H](C)N1CCCCNC(=O)c1ccc(-c2ccccc2)cc1` [compound 826943], under setting [6], the Ki was 12.7 nM.

In the case of `COc1cccc(C(=O)NCCCCN2[C@H](C)CN(c3csc4cc(C(F)(F)F)ccc34)C[C@@H]2C)c1` [compound 826932], the Ki under setting [6] came out at 384 nM.

Turning to `CCCCOc1ccc(C(=O)NCCCCN2C3CCC2CC(c2noc4cc(F)ccc24)C3)cc1` (stereo not drawn) [compound 816325], under setting [4], the Ki came out at 58.3 nM.

As to `O=C(c1ccc(-c2ccccc2)cc1)N(Cc1ccccc1)CC1CC1CN1CCCN(c2csc3cc(F)ccc23)CC1` (racemic) [compound 830397], the Ki (the 17th table, read-out: D3 Ki) is 55.4 nM.

For `CCn1cc(C(=O)N[C@@H](CO)CCCN2CCN(c3csc4cc(C(F)(F)F)ccc34)CC2)c(=O)c2ccc(C)nc21` [compound 815680], the Ki reads like this: (Table 2, read-out: D3K1) 197 nM; (read-out: D3K1) 197 nM; under setting [1], 197 nM.

Consider `CC1(C)C(CNC(=O)c2cccc(C#N)c2)C1CN1CCN(c2csc3cc(C(F)(F)F)ccc23)CC1` (stereo not drawn) [compound 826280], for which the Ki (read-out: D3K1) turned out to be 116 nM.

For `COc1ccccc1C(=O)NCCCCCN1CCCN(c2csc3cc(F)ccc23)CC1` [S984492], under setting [2], the Ki was determined as 34.7 nM.

`O=C(Nc1cccc(CN2CCN(c3csc4cc(F)ccc34)CC2)c1)c1cccnc1Cl` [compound 822186]: the Ki (the 19th table, read-out: D3 Ki) was 50.4 nM.

On to `O=C(NCCCCCCN1CCN(c2csc3cc(C(F)(F)F)ccc23)CC1)c1n[nH]c2ccccc12` [compound 826743], for which the Ki by setting is: (read-out: D3K1) 15 nM; under setting [1], 15 nM.

For the compound `O=C(NCCCCN1CCN(c2noc3ccsc23)CC1)c1cc(Cl)cc(Cl)c1` [compound 829678], the Ki under setting [5] is 275 nM.

In the case of `O=C(NCCCCCCN1CCN(c2csc3cc(C(F)(F)F)ccc23)CC1)c1c[nH]c2ccccc12` [compound 826740], the Ki (read-out: D3K1) was 44 nM and the Ki under setting [1] is 44 nM.

With `C[C@H]1CC[C@H](NC[C@@H]2C[C@H]2CN2CCN(c3csc4cc(C(F)(F)F)ccc34)CC2)CC1` [compound 832209], for the setting “the 23rd table, read-out: D3 Ki”, the Ki was 13.5 nM.

For the compound `Cc1ccccc1C(=O)NCCCCN1CCN(c2nn(C(=O)c3ccccc3C)c3ccsc23)CC1` [compound 825146], the Ki under setting [5] amounted to 188 nM.

`O=S(=O)(CCc1cccc2ccccc12)NCC1CC1CN1CCN(c2csc3cc(C(F)(F)F)ccc23)CC1` (stereo not drawn) [compound 831910]: the Ki (the 24th table, read-out: D3 Ki) is 277 nM.

In the case of `O=C(NCCCCN1CCCN(c2csc3cc(F)ccc23)CC1)c1c[nH]cn1` [S977830], the Ki under setting [2] was 5.8 nM.

As for `Cn1c(C(=O)NCCCCCN2CCN(c3csc4cc(C(F)(F)F)ccc34)CC2)cc2ccccc21` [compound 826796], the Ki is, setting by setting: (read-out: D3K1) 14.9 nM; under setting [1], 14.9 nM.

In the case of `COc1ccc2[nH]c(C(=O)NCc3sccc3CN3CCN(c4csc5cc(F)ccc45)CC3)cc2c1` [compound 826323], under setting [3], the Ki worked out at 67 nM.

Take `C[C@@H]1CN(c2csc3cc(F)ccc23)C[C@H](C)N1CCCCNC(=O)c1c[nH]c2ccccc12` [compound 826962]: the Ki under setting [6] is 79.8 nM.
